Laboratory results taken from ChEMBL document CHEMBL1138663, “Synthesis and aromatase inhibitory activity of novel pyridine-containing isoflavones” (J Med Chem, 2004).

Target: T1, Aromatase (Homo sapiens, UniProt P11511)
T1 sequence (P11511 whole entry): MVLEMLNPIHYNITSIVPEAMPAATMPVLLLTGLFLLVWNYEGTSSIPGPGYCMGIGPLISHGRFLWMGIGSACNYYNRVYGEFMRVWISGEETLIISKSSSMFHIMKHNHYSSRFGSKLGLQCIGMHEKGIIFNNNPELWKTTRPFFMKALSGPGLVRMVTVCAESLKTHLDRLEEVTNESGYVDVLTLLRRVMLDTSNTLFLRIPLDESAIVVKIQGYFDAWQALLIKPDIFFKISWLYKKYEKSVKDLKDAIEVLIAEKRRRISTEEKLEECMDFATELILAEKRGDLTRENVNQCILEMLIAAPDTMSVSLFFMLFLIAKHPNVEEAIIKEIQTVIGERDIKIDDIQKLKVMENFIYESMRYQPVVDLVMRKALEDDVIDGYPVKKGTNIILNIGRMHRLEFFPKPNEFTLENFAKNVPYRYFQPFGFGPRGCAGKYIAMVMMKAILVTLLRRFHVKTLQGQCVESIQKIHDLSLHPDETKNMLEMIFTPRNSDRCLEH

- Ki: 123 µM
SMILES: O=c1c(-c2ccc(O)cc2)coc2cc(O)cc(O)c12 [GENISTEIN]
